From the supplement of paper PMC10627819

Tests used:
[1] = test system: B. subtilis 168; test: fitness (endpoint OD595 vs no drug) (fraction); higher = more growth
Outline: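 With the first reading as background, OD595 was measured every 30 min for 14 h in 384-well plates kept at 37 °C and inoculated at OD595 0.01. TSB, LB Lennox or CY was the medium. Fitness is the optical density at the transition into stationary phase divided by the robust mean of no-drug control wells, with a cap of 1.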

[2] = test system: B. subtilis 168; test: Bliss interaction score (quartile over a dose matrix) (fitness difference); higher = more antagonism (negative = synergy)
Outline: (§1)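 Quartiles of the Bliss score were taken over technical, biological and donor/recipient replicates. That score is observed fitness minus the product of the single-drug fitness values, which were inferred from combination data. Fitness itself is OD595 at entry into stationary phase divided by the plate's robust no-drug mean, with a cap at 1.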

[3] = test system: S. aureus DSM 20231; test: as above
Outline: as §1

[4] = test system: S. aureus Newman; test: as above
Outline: as §1

[5] = test system: S. pneumoniae D39V; test: as above
Outline: as §1
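For Bliss interaction score (quartile over a dose matrix) in this document: first quartile when negative (synergy) and third quartile when positive (antagonism).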

CO[C@@H]1[C@@H](OC(N)=O)[C@@H](O)[C@H](Oc2ccc3c(O)c(NC(=O)c4ccc(O)c(CC=C(C)C)c4)c(=O)oc3c2C)OC1(C)C [Novobiocin] + CN[C@@H]1[C@H](O[C@H]2[C@H](O[C@H]3[C@H](O)[C@@H](O)[C@H](N=C(N)N)[C@@H](O)[C@@H]3N=C(N)N)O[C@@H](C)[C@]2(O)C=O)O[C@@H](CO)[C@H](O)[C@H]1O [Streptomycin]
fitness, [1]
Settings | first compound 0.0125 µg/mL | first compound 0.025 µg/mL | first compound 0.05 µg/mL
partner 2 µg/mL | 0.967 | ≥ 1 | 0.938
partner 4 µg/mL | – | 0.725 | 0.873
partner 8 µg/mL | 0.0452 | 0.0379 | 0.0344

fitness, [1], one replicate
Settings | first compound 0.125 µg/mL | first compound 0.25 µg/mL | first compound 0.5 µg/mL
partner 2 µg/mL | 0.926 | 0.843 | 0.592
partner 4 µg/mL | 0.928 | 0.836 | 0.537
partner 8 µg/mL | 0.135 | 0.044 | 0.0121

Settings | Bliss interaction score
[2] | 0.133
[3] | -0.111
[4] | -0.172
[5] | 0.0562

CO[C@@H]1[C@@H](OC(N)=O)[C@@H](O)[C@H](Oc2ccc3c(O)c(NC(=O)c4ccc(O)c(CC=C(C)C)c4)c(=O)oc3c2C)OC1(C)C [Novobiocin] + COc1cc(Cc2cnc(N)nc2N)cc(OC)c1OC [Trimethoprim]
fitness, [1]
Settings | first compound 0.0125 µg/mL | first compound 0.025 µg/mL | first compound 0.05 µg/mL | first compound 0.1 µg/mL | first compound 0.2 µg/mL
partner 0.25 µg/mL | – | – | – | – | 0.754
partner 0.5 µg/mL | 0.566 | 0.525 | 0.502 | 0.492 | 0.554

[1], one replicate
Settings | fitness
first compound 0.0125 µg/mL, partner 1 µg/mL | 0.471
first compound 0.0125 µg/mL, partner 2 µg/mL | 0.386
first compound 0.025 µg/mL, partner 1 µg/mL | 0.451
first compound 0.025 µg/mL, partner 2 µg/mL | 0.386
first compound 0.05 µg/mL, partner 0.1 µg/mL | 0.947
first compound 0.05 µg/mL, partner 0.125 µg/mL | 0.759
first compound 0.05 µg/mL, partner 0.2 µg/mL | 0.794
first compound 0.05 µg/mL, partner 0.4 µg/mL | 0.546
first compound 0.05 µg/mL, partner 1 µg/mL | 0.521
first compound 0.05 µg/mL, partner 2 µg/mL | 0.354
first compound 0.1 µg/mL, partner 0.1 µg/mL | ≥ 1
first compound 0.1 µg/mL, partner 0.125 µg/mL | 0.77
first compound 0.1 µg/mL, partner 0.2 µg/mL | 0.797
first compound 0.1 µg/mL, partner 0.4 µg/mL | 0.52
first compound 0.125 µg/mL, partner 0.125 µg/mL | 0.835
first compound 0.125 µg/mL, partner 0.25 µg/mL | 0.56
first compound 0.125 µg/mL, partner 0.5 µg/mL | 0.479
first compound 0.2 µg/mL, partner 0.1 µg/mL | 0.978
first compound 0.2 µg/mL, partner 0.125 µg/mL | 0.757
first compound 0.2 µg/mL, partner 0.2 µg/mL | 0.826
first compound 0.2 µg/mL, partner 0.4 µg/mL | 0.474
first compound 0.25 µg/mL, partner 0.125 µg/mL | 0.565
first compound 0.25 µg/mL, partner 0.25 µg/mL | 0.459
first compound 0.25 µg/mL, partner 0.5 µg/mL | 0.45
first compound 0.5 µg/mL, partner 0.125 µg/mL | 0.424
first compound 0.5 µg/mL, partner 0.25 µg/mL | 0.376
first compound 0.5 µg/mL, partner 0.5 µg/mL | 0.406

Settings | Bliss interaction score
[2] | 0.136
[3] | 0.134
[4] | 0.0627
[5] | 0.0635

CO[C@@H]1[C@@H](OC(N)=O)[C@@H](O)[C@H](Oc2ccc3c(O)c(NC(=O)c4ccc(O)c(CC=C(C)C)c4)c(=O)oc3c2C)OC1(C)C [Novobiocin] + COc1ccc(C[C@H](N)C(=O)N[C@H]2[C@@H](O)[C@H](n3cnc4c(N(C)C)ncnc43)O[C@@H]2CO)cc1 [Puromycin]
fitness, [1]
Settings | first compound 0.0125 µg/mL | first compound 0.025 µg/mL | first compound 0.05 µg/mL
partner 0.39 µg/mL | 0.948 | 0.948 | 0.973
partner 0.78 µg/mL | 0.954 | 0.964 | 0.938
partner 1.56 µg/mL | 0.956 | 0.907 | 0.971

fitness, [1], one replicate
Settings | first compound 0.125 µg/mL | first compound 0.25 µg/mL | first compound 0.5 µg/mL
partner 0.39 µg/mL | 0.89 | 0.819 | 0.554
partner 0.78 µg/mL | 0.962 | 0.953 | 0.655
partner 1.56 µg/mL | 0.905 | 0.853 | 0.544

Settings | Bliss interaction score
[2] | 0.0583
[3] | -0.0356
[4] | -0.0461
[5] | 0.105

CO[C@@H]1[C@@H](OC(N)=O)[C@@H](O)[C@H](Oc2ccc3c(O)c(NC(=O)c4ccc(O)c(CC=C(C)C)c4)c(=O)oc3c2C)OC1(C)C [Novobiocin] + C[n+]1ccc(-c2cc[n+](C)cc2)cc1 [Paraquat]
fitness, [1]
Settings | first compound 0.0125 µg/mL | first compound 0.025 µg/mL | first compound 0.05 µg/mL
partner 1.25 µg/mL | 0.937 | 0.942 | 0.976
partner 2.5 µg/mL | 0.939 | 0.956 | 0.999
partner 5 µg/mL | 0.855 | 0.832 | 0.912

fitness, [1], one replicate
Settings | first compound 0.125 µg/mL | first compound 0.25 µg/mL | first compound 0.5 µg/mL
partner 1.25 µg/mL | 0.908 | ≥ 1 | 0.664
partner 2.5 µg/mL | 0.951 | 0.878 | 0.517
partner 5 µg/mL | 0.836 | 0.819 | 0.452

Settings | Bliss interaction score
[2] | 0.0704
[3] | 0.0456
[4] | 0.0868
[5] | 0.0614

CO[C@@H]1[C@@H](OC(N)=O)[C@@H](O)[C@H](Oc2ccc3c(O)c(NC(=O)c4ccc(O)c(CC=C(C)C)c4)c(=O)oc3c2C)OC1(C)C [Novobiocin] + Cc1cc(NS(=O)(=O)c2ccc(N)cc2)no1 [Sulfamethoxazol]
fitness, [1]
Settings | first compound 0.0125 µg/mL | first compound 0.025 µg/mL | first compound 0.05 µg/mL
partner 1 µg/mL | 0.932 | 0.959 | 0.951
partner 2 µg/mL | 0.968 | 0.955 | 0.876
partner 4 µg/mL | 0.966 | 0.989 | 0.92

fitness, [1], one replicate
Settings | first compound 0.05 µg/mL | first compound 0.1 µg/mL | first compound 0.125 µg/mL | first compound 0.2 µg/mL | first compound 0.25 µg/mL | first compound 0.5 µg/mL
partner 0.5 µg/mL | 0.972 | ≥ 1 | – | ≥ 1 | – | –
partner 1 µg/mL | – | 0.864 | 0.999 | 0.81 | 0.897 | 0.49
partner 2 µg/mL | – | 0.814 | 0.927 | 0.885 | 0.838 | 0.507
partner 4 µg/mL | – | – | ≥ 1 | – | 0.909 | 0.482

Settings | Bliss interaction score
[2] | 0.0447
[3] | 0.0483
[4] | 0.041
[5] | -0.0959

CO[C@@H]1[C@@H](OC(N)=O)[C@@H](O)[C@H](Oc2ccc3c(O)c(NC(=O)c4ccc(O)c(CC=C(C)C)c4)c(=O)oc3c2C)OC1(C)C [Novobiocin] + Cc1onc(-c2ccccc2)c1C(=O)N[C@@H]1C(=O)N2[C@@H]1SC(C)(C)[C@@H]2C(=O)O [Oxacillin]
fitness, [1]
Settings | first compound 0.0125 µg/mL | first compound 0.025 µg/mL | first compound 0.05 µg/mL
partner 0.002 µg/mL | 0.988 | 0.974 | ≥ 1
partner 0.004 µg/mL | 0.949 | 0.926 | ≥ 1
partner 0.008 µg/mL | 0.946 | 0.895 | ≥ 1

fitness, [1], one replicate
Settings | first compound 0.05 µg/mL | first compound 0.1 µg/mL | first compound 0.125 µg/mL | first compound 0.2 µg/mL | first compound 0.25 µg/mL | first compound 0.5 µg/mL
partner 0.0078 µg/mL | – | – | 0.997 | – | 0.968 | 0.547
partner 0.0155 µg/mL | – | – | 0.952 | – | 0.948 | 0.498
partner 0.031 µg/mL | – | – | 0.848 | – | 0.798 | 0.289
partner 0.075 µg/mL | 0.673 | 0.672 | – | 0.734 | – | –
partner 0.15 µg/mL | 0.0266 | 0.0276 | – | 0.0165 | – | –
partner 0.3 µg/mL | 0.0465 | 0.036 | – | 0.0154 | – | –

Settings | Bliss interaction score
[2] | 0.0603
[3] | 0.0609
[4] | -0.0672
[5] | -0.0758

CN[C@@H]1[C@H](O[C@H]2[C@H](O[C@H]3[C@H](O)[C@@H](O)[C@H](N=C(N)N)[C@@H](O)[C@@H]3N=C(N)N)O[C@@H](C)[C@]2(O)C=O)O[C@@H](CO)[C@H](O)[C@H]1O [Streptomycin] + COc1cc(Cc2cnc(N)nc2N)cc(OC)c1OC [Trimethoprim]
fitness, [1], one replicate
Settings | partner 0.1 µg/mL | partner 0.125 µg/mL | partner 0.2 µg/mL | partner 0.4 µg/mL
first compound 2 µg/mL | 0.713 | 0.605 | 0.493 | 0.253
first compound 4 µg/mL | 0.0534 | 0.0554 | 0.0535 | 0.0313
first compound 8 µg/mL | 0.0279 | 0.0253 | 0.0392 | 0.025

fitness, [1]
Settings | partner 0.25 µg/mL | partner 0.5 µg/mL | partner 1 µg/mL | partner 2 µg/mL
first compound 2 µg/mL | 0.416 | 0.103 | 0.0483 | 0.0464
first compound 4 µg/mL | 0.0303 | 0.0474 | 0.0558 | 0.0621
first compound 8 µg/mL | 0.0127 | 0.0322 | 0.0309 | 0.0326

Settings | Bliss interaction score
[2] | -0.252
[3] | -0.0639
[4] | 0.0902
[5] | -0.175
